In patent US20240218022A1, “ANTI-VISTA MACROCYCLIC PEPTIDES AND COMPOSITIONS” (BRISTOL-MYERS SQUIBB COMPANY, priority 2022, published 2024):
pIC50: −log10 of the molar value. Positions of bridges follow the written chain, without caps; N, C: chain ends. Non-standard residues stand in square brackets, D forms with d. Residues, ends and D or L forms follow the SMILES beside them. NMeW = CN[C@@H](Cc1c[nH]c2ccccc12)C(=O)O; 2Nal = N[C@@H](Cc1ccc2ccccc2c1)C(=O)O; NMeR = CN[C@@H](CCCNC(=N)N)C(=O)O; Cit = NC(=O)NCCC[C@H](N)C(=O)O; Ahp(2) = CCCCC[C@H](N)C(=O)O; NMeNle = CCCC[C@H](NC)C(=O)O; NMeV = CN[C@H](C(=O)O)C(C)C; NMeS = CN[C@@H](CO)C(=O)O; NHexGly = CCCCCCNCC(=O)O; Nle = CCCC[C@H](N)C(=O)O; Orn = NCCC[C@H](N)C(=O)O

Biological target: T1, mouse VISTA (mVISTA) (Mus musculus, UniProt Q9D659)
T1 construct: expressed in transfected cells; host or cells: Human embryonic kidney 293T cells
T1 sequence (Q9D659 33-308): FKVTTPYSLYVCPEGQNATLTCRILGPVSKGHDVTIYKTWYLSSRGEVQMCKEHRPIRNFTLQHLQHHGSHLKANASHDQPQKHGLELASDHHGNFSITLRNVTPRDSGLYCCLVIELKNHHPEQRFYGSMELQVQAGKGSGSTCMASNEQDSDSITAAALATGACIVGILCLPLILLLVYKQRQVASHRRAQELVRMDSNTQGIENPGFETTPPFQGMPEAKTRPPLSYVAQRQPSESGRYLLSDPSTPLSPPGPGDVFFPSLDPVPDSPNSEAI
Assay: Cell-Based Binding High-Content Assay For mVISTA (HC CBA mVISTA)
Conditions: cell-based binding high-content assay, mVISTA; the 15th table; read-out: HC CBA mVISTA IC50
Procedure, shortened: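 mVISTA-293T, 4,000 cells/well; cpd ± washout step; biotin-peptide 2 nM final, 30 min RT; SA-Alexa 647 30 min; formaldehyde/Hoechst fix; HCS imaging; 4PL IC50.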

Structure (SMILES) | pIC50
CCCCCCN1CC(=O)N[C@@H](Cc2ccc(O)cc2)C(=O)N[C@@H](CCCC)C(=O)N[C@@H](CC(N)=O)C(=O)N[C@@H](CCCNC(=N)N)C(=O)N(C)[C@@H](CCCC)C(=O)N[C@@H](CCCCC)C(=O)N2CCC[C@H]2C(=O)N[C@@H](C(C)C)C(=O)N[C@@H](C(C)C)C(=O)N[C@H](C(=O)NCC(=O)O)CSCC(=O)N[C@@H](Cc2ccc3ccccc3c2)C(=O)N[C@@H](Cc2c[nH]c3ccccc23)C(=O)N[C@@H](CC(=O)O)C1=O [compound 1248] ({CH2CO}-[2Nal]WD[NHexGly]Y[Nle]NR[NMeNle][Ahp(2)]PVVCG-OH; thioether N-14) | 7.42
CCCCCCN1CC(=O)N[C@@H](Cc2ccc(O)cc2)C(=O)N[C@@H](CCCC)C(=O)N[C@@H](CC(N)=O)C(=O)N[C@@H](CCCNC(=N)N)C(=O)N(C)[C@@H](CCCC)C(=O)N[C@@H](CCCCC)C(=O)N2CCC[C@H]2C(=O)N[C@@H](C(C)C)C(=O)N[C@@H](CC(N)=O)C(=O)N[C@H](C(=O)NCC(=O)O)CSCC(=O)N[C@@H](Cc2ccc3ccccc3c2)C(=O)N[C@@H](Cc2c[nH]c3ccccc23)C(=O)N[C@@H](CC(=O)O)C1=O [compound 1249] ({CH2CO}-[2Nal]WD[NHexGly]Y[Nle]NR[NMeNle][Ahp(2)]PVNCG-OH; thioether N-14) | 7.86
CCCCCCN1CC(=O)N[C@@H](Cc2ccc(O)cc2)C(=O)N[C@@H](CCCCC)C(=O)N[C@@H](CC(N)=O)C(=O)N[C@@H](CCCNC(=N)N)C(=O)N(C)[C@@H](CCCC)C(=O)N[C@@H](CCCCC)C(=O)N2CCC[C@H]2C(=O)N[C@@H](C(C)C)C(=O)N[C@@H](C(C)C)C(=O)N[C@H](C(=O)NCC(=O)O)CSCC(=O)N[C@@H](Cc2ccc3ccccc3c2)C(=O)N[C@@H](Cc2c[nH]c3ccccc23)C(=O)N[C@@H](CC(=O)O)C1=O [compound 1250] ({CH2CO}-[2Nal]WD[NHexGly]Y[Ahp(2)]NR[NMeNle][Ahp(2)]PVVCG-OH; thioether N-14) | 7.66
CCCCCCN1CC(=O)N[C@@H](Cc2ccc(O)cc2)C(=O)N[C@@H](CCCCC)C(=O)N[C@@H](CC(N)=O)C(=O)N[C@@H](CCCNC(=N)N)C(=O)N(C)[C@@H](CCCC)C(=O)N[C@@H](CCCCC)C(=O)N2CCC[C@H]2C(=O)N[C@@H](C(C)C)C(=O)N[C@@H](CC(=O)O)C(=O)N[C@H](C(=O)NCC(=O)O)CSCC(=O)N[C@@H](Cc2ccc3ccccc3c2)C(=O)N[C@@H](Cc2c[nH]c3ccccc23)C(=O)N[C@@H](CC(=O)O)C1=O [compound 1251] ({CH2CO}-[2Nal]WD[NHexGly]Y[Ahp(2)]NR[NMeNle][Ahp(2)]PVDCG-OH; thioether N-14) | 7.90
CCCCCCN1CC(=O)N[C@@H](Cc2ccc(O)cc2)C(=O)N[C@@H](CCCCC)C(=O)N[C@@H](CC(N)=O)C(=O)N[C@@H](CCCNC(=N)N)C(=O)N(C)[C@@H](CCCC)C(=O)N[C@@H](CCCCC)C(=O)N2CCC[C@H]2C(=O)N[C@@H](C(C)C)C(=O)N[C@@H](CO)C(=O)N[C@H](C(=O)NCC(=O)O)CSCC(=O)N[C@@H](Cc2ccc3ccccc3c2)C(=O)N[C@@H](Cc2c[nH]c3ccccc23)C(=O)N[C@@H](CC(=O)O)C1=O [compound 1252] ({CH2CO}-[2Nal]WD[NHexGly]Y[Ahp(2)]NR[NMeNle][Ahp(2)]PVSCG-OH; thioether N-14) | 8.19
CCCCCCN1CC(=O)N[C@@H](Cc2ccc(O)cc2)C(=O)N[C@@H](CCCC)C(=O)N[C@@H](CC(N)=O)C(=O)N[C@@H](CCCNC(N)=O)C(=O)N(C)[C@@H](CCCC)C(=O)N[C@@H](CCCCC)C(=O)N2CCC[C@H]2C(=O)N[C@@H](C(C)C)C(=O)N[C@@H](CC(=O)O)C(=O)N[C@H](C(=O)NCC(=O)O)CSCC(=O)N[C@@H](Cc2ccc3ccccc3c2)C(=O)N[C@@H](Cc2c[nH]c3ccccc23)C(=O)N[C@@H](CC(=O)O)C1=O [compound 1253] ({CH2CO}-[2Nal]WD[NHexGly]Y[Nle]N[Cit][NMeNle][Ahp(2)]PVDCG-OH; thioether N-14) | 8.16
CCCCCCN1CC(=O)N[C@@H](Cc2ccc(O)cc2)C(=O)N[C@@H](CCCCC)C(=O)N[C@@H](CC(N)=O)C(=O)N[C@@H](CCCNC(=N)N)C(=O)N(C)[C@@H](CCCC)C(=O)N[C@@H](CCCCC)C(=O)N2CCC[C@H]2C(=O)N[C@@H](C(C)C)C(=O)N[C@@H](CC(=O)O)C(=O)N[C@H](C(=O)N[C@@H](CO)C(N)=O)CSCC(=O)N[C@@H](Cc2ccc3ccccc3c2)C(=O)N[C@@H](Cc2c[nH]c3ccccc23)C(=O)N[C@@H](CC(=O)O)C1=O [compound 1254] ({CH2CO}-[2Nal]WD[NHexGly]Y[Ahp(2)]NR[NMeNle][Ahp(2)]PVDCS-NH2; thioether N-14) | 7.80
CCCCCCN1CC(=O)N[C@@H](Cc2ccc(O)cc2)C(=O)N[C@@H](CCCC)C(=O)N[C@@H](CC(N)=O)C(=O)N[C@@H](CCCNC(=N)N)C(=O)N(C)[C@@H](CCCC)C(=O)N[C@@H](CCCCC)C(=O)N2CCC[C@H]2C(=O)N[C@@H](C(C)C)C(=O)N[C@@H](CC(=O)O)C(=O)N[C@H](C(=O)N[C@@H](CO)C(=O)O)CSCC(=O)N[C@@H](Cc2ccc3ccccc3c2)C(=O)N[C@@H](Cc2c[nH]c3ccccc23)C(=O)N[C@@H](CC(=O)O)C1=O [compound 1255] ({CH2CO}-[2Nal]WD[NHexGly]Y[Nle]NR[NMeNle][Ahp(2)]PVDCS-OH; thioether N-14) | 7.88
CCCCCCN1CC(=O)N[C@@H](Cc2ccc(O)cc2)C(=O)N[C@@H](CCCC)C(=O)N[C@@H](CC(=O)O)C(=O)N[C@@H](CCCN)C(=O)N(C)[C@@H](CCCC)C(=O)N[C@@H](CCCCC)C(=O)N2CCC[C@H]2C(=O)N[C@@H](C(C)C)C(=O)N[C@@H](CC(=O)O)C(=O)N[C@H](C(=O)N[C@@H](CO)C(N)=O)CSCC(=O)N[C@@H](Cc2ccc3ccccc3c2)C(=O)N[C@@H](Cc2c[nH]c3ccccc23)C(=O)N[C@@H](CC(=O)O)C1=O [compound 1256] ({CH2CO}-[2Nal]WD[NHexGly]Y[Nle]D[Orn][NMeNle][Ahp(2)]PVDCS-NH2; thioether N-14) | 7.89
CCCCCCN1CC(=O)N[C@@H](Cc2ccc(O)cc2)C(=O)N[C@@H](CCCC)C(=O)N[C@@H](CC(=O)O)C(=O)N[C@@H](CCCNC(=N)N)C(=O)N(C)[C@@H](CCCC)C(=O)N[C@@H](CCCCC)C(=O)N2CCC[C@H]2C(=O)N[C@@H](C(C)C)C(=O)N[C@@H](CC(=O)O)C(=O)N[C@H](C(=O)N[C@@H](CO)C(N)=O)CSCC(=O)N[C@@H](Cc2ccc3ccccc3c2)C(=O)N[C@@H](Cc2c[nH]c3ccccc23)C(=O)N[C@@H](CC(=O)O)C1=O [compound 1257] ({CH2CO}-[2Nal]WD[NHexGly]Y[Nle]DR[NMeNle][Ahp(2)]PVDCS-NH2; thioether N-14) | 7.95
CCCCCCN1CC(=O)N[C@@H](Cc2ccc(O)cc2)C(=O)N[C@@H](CCCC)C(=O)N[C@@H](CC(N)=O)C(=O)N[C@@H](CCCNC(=N)N)C(=O)N(C)[C@@H](CCCNC(=N)N)C(=O)N[C@@H](CCCCC)C(=O)N2CCC[C@H]2C(=O)N[C@@H](C(C)C)C(=O)N[C@@H](CC(=O)O)C(=O)N[C@H](C(=O)NCC(=O)O)CSCC(=O)N[C@@H](Cc2ccc3ccccc3c2)C(=O)N[C@@H](Cc2c[nH]c3ccccc23)C(=O)N[C@@H](CC(=O)O)C1=O [compound 1258] ({CH2CO}-[2Nal]WD[NHexGly]Y[Nle]NR[NMeR][Ahp(2)]PVDCG-OH; thioether N-14) | 7.92
CCCCCCN1CC(=O)N[C@@H](Cc2ccc(O)cc2)C(=O)N[C@@H](CCCC)C(=O)N[C@@H](CC(N)=O)C(=O)N[C@@H](CCCNC(=N)N)C(=O)N(C)[C@@H](CO)C(=O)N[C@@H](CCCCC)C(=O)N2CCC[C@H]2C(=O)N[C@@H](C(C)C)C(=O)N[C@@H](CC(=O)O)C(=O)N[C@H](C(=O)NCC(=O)O)CSCC(=O)N[C@@H](Cc2ccc3ccccc3c2)C(=O)N[C@@H](Cc2c[nH]c3ccccc23)C(=O)N[C@@H](CC(=O)O)C1=O [compound 1259] ({CH2CO}-[2Nal]WD[NHexGly]Y[Nle]NR[NMeS][Ahp(2)]PVDCG-OH; thioether N-14) | 8.10
CCCCCCN1CC(=O)N[C@@H](Cc2ccc(O)cc2)C(=O)N[C@@H](CCCC)C(=O)N[C@@H](CC(N)=O)C(=O)N[C@@H](CCCNC(=N)N)C(=O)N(C)[C@@H](C(C)C)C(=O)N[C@@H](CCCCC)C(=O)N2CCC[C@H]2C(=O)N[C@@H](C(C)C)C(=O)N[C@@H](CC(=O)O)C(=O)N[C@H](C(=O)NCC(=O)O)CSCC(=O)N[C@@H](Cc2ccc3ccccc3c2)C(=O)N[C@@H](Cc2c[nH]c3ccccc23)C(=O)N[C@@H](CC(=O)O)C1=O [compound 1260] ({CH2CO}-[2Nal]WD[NHexGly]Y[Nle]NR[NMeV][Ahp(2)]PVDCG-OH; thioether N-14) | 8.03
CCCCCCN1CC(=O)N[C@@H](Cc2ccc(O)cc2)C(=O)N[C@@H](CCCC)C(=O)N[C@@H](CC(N)=O)C(=O)N[C@@H](CCCNC(=N)N)C(=O)N(C)[C@@H](Cc2c[nH]c3ccccc23)C(=O)N[C@@H](CCCCC)C(=O)N2CCC[C@H]2C(=O)N[C@@H](C(C)C)C(=O)N[C@@H](CC(=O)O)C(=O)N[C@H](C(=O)NCC(=O)O)CSCC(=O)N[C@@H](Cc2ccc3ccccc3c2)C(=O)N[C@@H](Cc2c[nH]c3ccccc23)C(=O)N[C@@H](CC(=O)O)C1=O [compound 1261] ({CH2CO}-[2Nal]WD[NHexGly]Y[Nle]NR[NMeW][Ahp(2)]PVDCG-OH; thioether N-14) | 7.93
CCCCCCN1CC(=O)N[C@@H](Cc2ccc(O)cc2)C(=O)N[C@@H](CC(C)C)C(=O)NCC(=O)N[C@@H](CCCNC(=N)N)C(=O)N[C@@H](Cc2ccc(O)cc2)C(=O)N[C@@H](CCCCC)C(=O)N2CCC[C@H]2C(=O)N[C@@H](C(C)C)C(=O)N[C@@H](CC(=O)O)C(=O)N[C@H](C(=O)NCC(=O)O)CSCC(=O)N[C@@H](Cc2ccc3ccccc3c2)C(=O)N[C@@H](Cc2c[nH]c3ccccc23)C(=O)N[C@@H](CC(=O)O)C1=O [compound 1263] ({CH2CO}-[2Nal]WD[NHexGly]YLGRY[Ahp(2)]PVDCG-OH; thioether N-14) | 7.70
